ChEMBL document CHEMBL5209897, “Affinity Phenotypic Cellular Literature for EUbOPEN Chemogenomics Library wave 3” (2023)
Blank lines part the entries; values can stand above or below the compound they belong to.

Columns and labels:
Activin receptor type-1B = Activin receptor type-1B (Homo sapiens, UniProt P36896); assay: Affinity Phenotypic Cellular interaction (Western blot (inhibition of SMAD2/3 phosphorylation)) EUB0000710a ACVR1B
TGF-beta receptor type-1 = TGF-beta receptor type-1 (Homo sapiens, UniProt P36897); assay: Affinity Phenotypic Cellular interaction (Western blot (inhibition of SMAD2/3 phosphorylation)) EUB0000710a TGFBR1
TGF-beta receptor type-1, sequence (P36897 whole entry): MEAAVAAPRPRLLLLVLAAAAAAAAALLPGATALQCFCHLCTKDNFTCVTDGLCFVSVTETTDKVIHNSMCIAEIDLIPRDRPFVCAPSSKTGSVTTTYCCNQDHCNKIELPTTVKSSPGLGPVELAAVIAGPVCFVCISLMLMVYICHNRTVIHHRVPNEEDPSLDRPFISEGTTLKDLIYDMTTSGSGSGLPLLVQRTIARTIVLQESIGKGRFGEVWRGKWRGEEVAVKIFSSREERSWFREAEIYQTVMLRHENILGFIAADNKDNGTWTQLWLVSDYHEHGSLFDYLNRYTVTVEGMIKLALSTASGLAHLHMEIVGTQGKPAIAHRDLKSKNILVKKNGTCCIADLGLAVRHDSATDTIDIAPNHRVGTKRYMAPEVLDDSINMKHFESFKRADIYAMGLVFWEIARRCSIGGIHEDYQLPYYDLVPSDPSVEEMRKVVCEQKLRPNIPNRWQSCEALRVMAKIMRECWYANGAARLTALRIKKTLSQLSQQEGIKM

[1] = target: B-cell lymphoma 6 protein (Homo sapiens, UniProt P41182); assay: Affinity Phenotypic Cellular interaction (Inhibition of BCL6 co-repressor (BCoR, M2H assay/Bright-Glo luciferase assay in HEK293T cells, Promega)) EUB0000316c BCL6; type: cell-based; design: mode of action Inhibitor, recommended concentration 1 uM
[2] = Affinity Phenotypic Cellular interaction (Proliferation assay (CellTiter-Glo ATP assay in human lung H1299 cells)) EUB0000752a NDUFS2
[3] = target: T1, Calcium/calmodulin-dependent protein kinase kinase 2 (Homo sapiens, UniProt Q96RR4); assay: Affinity Phenotypic Cellular interaction (Western Blot (downstream phosphorylation of AMPK in C4-2 cells)) EUB0000168b CAMKK2; type: cell-based; design: mode of action Negative control for SGC-CAMKK2-1 (UNC-YL-36), recommended concentration 1 uM
T1 sequence (Q96RR4 whole entry): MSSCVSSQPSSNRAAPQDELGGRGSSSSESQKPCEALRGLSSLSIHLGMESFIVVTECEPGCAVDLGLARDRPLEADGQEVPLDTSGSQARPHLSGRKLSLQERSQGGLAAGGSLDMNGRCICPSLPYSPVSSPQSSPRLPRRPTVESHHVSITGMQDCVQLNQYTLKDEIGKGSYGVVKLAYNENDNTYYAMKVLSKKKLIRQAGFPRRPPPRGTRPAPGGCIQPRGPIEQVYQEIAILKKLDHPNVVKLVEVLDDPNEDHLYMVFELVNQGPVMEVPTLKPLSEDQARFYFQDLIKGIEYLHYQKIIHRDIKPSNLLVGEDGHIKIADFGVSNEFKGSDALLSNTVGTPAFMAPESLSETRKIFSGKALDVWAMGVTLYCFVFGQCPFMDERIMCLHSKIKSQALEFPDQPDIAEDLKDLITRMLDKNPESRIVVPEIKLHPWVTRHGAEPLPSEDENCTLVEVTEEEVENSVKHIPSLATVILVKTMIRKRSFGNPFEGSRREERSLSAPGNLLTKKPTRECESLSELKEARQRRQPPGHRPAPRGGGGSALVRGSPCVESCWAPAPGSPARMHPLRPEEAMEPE

[4] = target: Mitogen-activated protein kinase 14 (Homo sapiens, UniProt Q16539); assay: Affinity Phenotypic Cellular interaction (TNF-a release (stimmulated by LPS in human WB)) EUB0000711a MAPK14; type: functional; design: mode of action Negative control for SR318, recommended concentration 1 uM
Mitogen-activated protein kinase 14, sequence (Q16539 whole entry): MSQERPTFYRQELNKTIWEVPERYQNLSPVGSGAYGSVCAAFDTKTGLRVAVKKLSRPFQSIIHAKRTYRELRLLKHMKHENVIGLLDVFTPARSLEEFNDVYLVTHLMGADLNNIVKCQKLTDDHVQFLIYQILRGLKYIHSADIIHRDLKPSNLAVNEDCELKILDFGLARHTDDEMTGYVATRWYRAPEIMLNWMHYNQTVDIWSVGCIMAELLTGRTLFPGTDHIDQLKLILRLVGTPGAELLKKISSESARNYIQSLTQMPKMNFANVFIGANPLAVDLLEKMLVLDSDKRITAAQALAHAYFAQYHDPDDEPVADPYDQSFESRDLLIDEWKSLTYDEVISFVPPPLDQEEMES

[5] = target: T2, Mitogen-activated protein kinase 11 (Homo sapiens, UniProt Q15759); assay: Affinity Phenotypic Cellular interaction (TNF-a release (stimmulated by LPS in human WB)) EUB0000711a MAPK11; type: functional; design: mode of action Negative control for SR318, recommended concentration 1 uM
T2 sequence (Q15759 whole entry): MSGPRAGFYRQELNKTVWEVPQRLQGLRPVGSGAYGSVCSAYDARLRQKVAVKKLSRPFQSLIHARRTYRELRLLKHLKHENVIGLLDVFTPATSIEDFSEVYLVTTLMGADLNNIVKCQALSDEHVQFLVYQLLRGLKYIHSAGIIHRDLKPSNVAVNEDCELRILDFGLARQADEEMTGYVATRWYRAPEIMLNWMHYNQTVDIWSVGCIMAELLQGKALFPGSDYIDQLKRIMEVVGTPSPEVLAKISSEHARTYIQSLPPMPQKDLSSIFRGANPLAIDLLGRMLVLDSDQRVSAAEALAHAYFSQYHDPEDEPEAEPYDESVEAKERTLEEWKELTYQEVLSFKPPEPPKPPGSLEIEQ

Presenilin-1 [6] = target: T3, Presenilin-1 (Homo sapiens, UniProt P49768); assay: Affinity Phenotypic Cellular interaction (Abeta40 inhibition assay (in SH-SY5Y (SP4CT) cells; APP as target)) EUB0000750a PSEN1; type: cell-based; design: mode of action Inhibitor, recommended concentration 100 nM
[7] = target: Methionine aminopeptidase 2 (Homo sapiens, UniProt P50579); assay: Affinity Phenotypic Cellular interaction (Western Blot (acumulation of Nmet14-3-3gamma in HUVEC cells)) EUB0000303b METAP2; type: cell-based; design: mode of action Inhibitor, recommended concentration 1 uM
Methionine aminopeptidase 2, sequence (P50579 whole entry): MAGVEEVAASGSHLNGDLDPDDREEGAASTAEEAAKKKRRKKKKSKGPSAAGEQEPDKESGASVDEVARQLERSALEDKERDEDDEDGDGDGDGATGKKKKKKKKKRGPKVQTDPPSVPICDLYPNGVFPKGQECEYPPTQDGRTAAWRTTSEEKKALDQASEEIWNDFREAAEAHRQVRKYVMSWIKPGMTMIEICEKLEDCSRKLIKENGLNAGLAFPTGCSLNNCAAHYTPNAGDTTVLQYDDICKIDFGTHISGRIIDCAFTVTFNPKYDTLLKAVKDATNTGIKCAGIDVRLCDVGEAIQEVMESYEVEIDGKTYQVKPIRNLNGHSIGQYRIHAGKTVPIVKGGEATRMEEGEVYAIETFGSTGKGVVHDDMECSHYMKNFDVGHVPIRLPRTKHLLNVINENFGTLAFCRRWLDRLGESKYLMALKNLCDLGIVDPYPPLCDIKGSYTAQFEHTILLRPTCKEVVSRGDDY

[8] = target: 5'-AMP-activated protein kinase catalytic subunit alpha-1 (Homo sapiens, UniProt Q13131); assay: Affinity Phenotypic Cellular interaction (Cellular mechanistic pACC assay using IMR-32 neuroblastoma cells) EUB0000707a PRKAA1; type: functional; design: mode of action Negative control for BAY-3827, recommended concentration 100 nM
5'-AMP-activated protein kinase catalytic subunit alpha-1, sequence (Q13131 whole entry): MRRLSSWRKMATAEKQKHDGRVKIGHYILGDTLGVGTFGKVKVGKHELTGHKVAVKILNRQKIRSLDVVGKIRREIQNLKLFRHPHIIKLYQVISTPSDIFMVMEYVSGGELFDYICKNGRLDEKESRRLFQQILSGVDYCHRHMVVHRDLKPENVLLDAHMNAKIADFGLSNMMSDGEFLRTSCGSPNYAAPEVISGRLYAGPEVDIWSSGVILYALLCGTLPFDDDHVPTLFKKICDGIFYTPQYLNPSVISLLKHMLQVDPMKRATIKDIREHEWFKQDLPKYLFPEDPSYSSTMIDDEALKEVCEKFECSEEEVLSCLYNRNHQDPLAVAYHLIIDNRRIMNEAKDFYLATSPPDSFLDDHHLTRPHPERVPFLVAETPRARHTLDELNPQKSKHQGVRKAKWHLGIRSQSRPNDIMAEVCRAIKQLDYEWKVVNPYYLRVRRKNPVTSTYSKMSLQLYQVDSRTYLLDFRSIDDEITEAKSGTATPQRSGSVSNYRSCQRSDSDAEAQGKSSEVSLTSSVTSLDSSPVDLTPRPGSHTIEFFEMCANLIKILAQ

[9] = target: Ribosomal protein S6 kinase alpha-1 (Homo sapiens) (UniProt Q15418); assay: Affinity Phenotypic Cellular interaction (Cellular mechanistic pACC assay using IMR-32 neuroblastoma cells) EUB0000707a RPS6KA1
Ribosomal protein S6 kinase alpha-1 (Homo sapiens), sequence (Q15418 whole entry, looked up, the tested form may be a part): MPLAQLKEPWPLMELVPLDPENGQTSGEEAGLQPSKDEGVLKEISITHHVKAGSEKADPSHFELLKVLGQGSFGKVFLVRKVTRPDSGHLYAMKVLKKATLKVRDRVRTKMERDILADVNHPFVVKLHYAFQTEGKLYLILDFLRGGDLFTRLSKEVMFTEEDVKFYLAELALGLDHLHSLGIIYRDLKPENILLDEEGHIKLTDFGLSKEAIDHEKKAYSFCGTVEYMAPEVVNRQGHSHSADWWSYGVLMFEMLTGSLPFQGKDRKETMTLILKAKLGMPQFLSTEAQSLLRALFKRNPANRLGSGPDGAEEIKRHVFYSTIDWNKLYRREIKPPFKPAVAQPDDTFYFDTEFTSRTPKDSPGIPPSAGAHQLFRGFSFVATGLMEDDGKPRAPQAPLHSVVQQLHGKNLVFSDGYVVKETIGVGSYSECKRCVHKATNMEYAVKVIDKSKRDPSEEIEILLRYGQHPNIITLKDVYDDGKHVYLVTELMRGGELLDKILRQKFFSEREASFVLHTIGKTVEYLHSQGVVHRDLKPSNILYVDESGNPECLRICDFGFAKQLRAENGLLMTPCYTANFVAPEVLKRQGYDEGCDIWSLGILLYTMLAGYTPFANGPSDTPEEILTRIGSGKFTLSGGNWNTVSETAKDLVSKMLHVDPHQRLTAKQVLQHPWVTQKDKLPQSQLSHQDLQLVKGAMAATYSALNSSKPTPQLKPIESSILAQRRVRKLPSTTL

Presenilin-1 [10] = target: T3, Presenilin-1; assay: Affinity Phenotypic Cellular interaction (Abeta42 inhibition assay (electrochemiluminescent detection of peptides secreted by SH-SY5Y cells stably overexpressing the APP C-terminal fragment SPA4CT)) EUB0000739a PSEN1; design: mode of action Negative control for GSM1, recommended concentration 1 uM
[11] = target: T2, Mitogen-activated protein kinase 11; assay: Affinity Phenotypic Cellular interaction (TNF-a release (stimmulated by LPS in human WB)) EUB0000718a MAPK11; type: functional; design: mode of action Inhibitor, recommended concentration 1 uM
[12] = target: T2, Mitogen-activated protein kinase 11
[13] = target: T1, Calcium/calmodulin-dependent protein kinase kinase 2; assay: Affinity Phenotypic Cellular interaction (Western Blot (downstream phosphorylation of AMPK in C4-2 cells)) EUB0000167b CAMKK2; type: cell-based; design: mode of action Inhibitor, recommended concentration 1 uM
Presenilin-1 [14] = target: T3, Presenilin-1; assay: Affinity Phenotypic Cellular interaction (Abeta40 inhibition assay (in SH-SY5Y (SP4CT) cells; APP as target)) EUB0000741a PSEN1; type: cell-based; design: mode of action Negative control for MRK-560, recommended concentration 100 nM

Activin receptor type-1B, sequence (P36896 whole entry): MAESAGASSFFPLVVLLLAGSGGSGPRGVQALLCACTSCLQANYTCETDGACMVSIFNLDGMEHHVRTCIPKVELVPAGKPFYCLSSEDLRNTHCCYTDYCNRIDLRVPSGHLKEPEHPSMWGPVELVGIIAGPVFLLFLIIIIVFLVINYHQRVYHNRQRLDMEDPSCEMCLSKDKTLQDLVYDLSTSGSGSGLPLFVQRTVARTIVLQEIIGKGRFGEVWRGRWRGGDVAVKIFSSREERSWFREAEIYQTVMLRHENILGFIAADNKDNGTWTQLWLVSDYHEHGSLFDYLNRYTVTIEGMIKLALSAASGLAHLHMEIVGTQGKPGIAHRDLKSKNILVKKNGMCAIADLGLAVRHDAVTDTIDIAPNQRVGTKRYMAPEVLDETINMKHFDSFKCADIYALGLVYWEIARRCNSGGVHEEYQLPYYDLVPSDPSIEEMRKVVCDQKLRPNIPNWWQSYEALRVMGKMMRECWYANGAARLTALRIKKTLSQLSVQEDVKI

SMILES: Cc1cnc(-c2cc(Cl)ccc2F)cc1-n1c(=O)n(CC(N)=O)c2ccccc21 [Al11]
- EC50 (Activin receptor type-1B): > 10000 nM
- EC50 (TGF-beta receptor type-1): > 10000 nM

SMILES: O=C1CCc2cc(Nc3cc(OC4CCOCC4)c([N+](=O)[O-])cc3Cl)ccc2N1
- IC50 [1]: 720 nM

SMILES: c1ccc2oc(-c3csc(C4CCN(Cc5nc6ncccc6[nH]5)CC4)n3)cc2c1
- IC50 [2]: 33 nM

SMILES: O=C(O)c1ccc(-c2coc3ncc(-c4ccccc4)cc23)cc1Cl
- IC50 [3]: > 10000 nM

SMILES: Cc1nc(N2CC[C@H](O)C2)ncc1-c1cc(C(F)(F)F)cc2[nH]ncc12
- EC50 [7]: 15 nM

SMILES: COc1cc(-c2cn([C@H]3CCc4ccccc4N(CC(F)(F)F)C3=O)nn2)ccc1-n1ccc(C)n1
- IC50 (Presenilin-1 [10]): > 10000 nM

SMILES: O=C1c2ccc(Nc3ccc(F)cc3F)cc2CCc2ccc(OC[C@H](O)CO)cc21 [Skepinone-L]
- IC50 [12]: 25 nM

SMILES: Cc1cccc(-c2cnc3occ(-c4ccc(C(=O)O)c(C5CCCC5)c4)c3c2)c1
- IC50 [13]: 1600 nM

SMILES: CC(C)(C)OC(=O)N1CCCC1CNC1CCC(c2cc(F)ccc2F)(S(=O)(=O)c2ccc(Cl)cc2)CC1 (stereo unspecified) [GSI-NC]
- IC50 (Presenilin-1 [14]): 1600 nM

Second part, the compound after the results:

- IC50 [4]: > 10000 nM
- IC50 [5]: > 10000 nM
SMILES: O=C(NCCCC1CCCCC1)c1ccc(CNC(=O)c2cnn(-c3ccccc3)c2C(F)(F)F)cc1 [SR-321]

- IC50 (Presenilin-1 [6]): < 0.5 nM
SMILES: O=S(=O)(NC1CCC(c2cc(F)ccc2F)(S(=O)(=O)c2ccc(Cl)cc2)CC1)C(F)(F)F (stereo unspecified) [MRK-560]

- IC50 [8]: > 30000 nM
- IC50 [9]: > 30000 nM
SMILES: CC1=C(C#N)C(c2ccc3c(c2)c(NC(=O)c2ccccc2C)nn3C)C(C#N)=C(C)N1 [BAY-974]

- IC50 [11]: 38 nM
SMILES: O=C(NCCN1CCOCC1)c1ccc2c(c1)C(=O)c1ccc(Nc3ccc(F)c(NC(=O)c4ccccc4)c3)cc1CC2 [FS-694]
